Laboratory results: ChEMBL document CHEMBL3864184, “Optimization of Highly Kinase Selective Bis-anilino Pyrimidine PAK1 Inhibitors” (ACS Med Chem Lett, 2016)
One block for each molecule: values may come before it. Active and inactive are the calls of the source. No cut-off for these calls is given here.

Tests used:
[1] = Distribution coefficient, logD of the compound; format: physicochemical; conditions: octanol/water
[2] = molecular target: T1, Alpha-1B adrenergic receptor (Homo sapiens) (UniProt P35368); test: Activity at alpha-1B adrenergic receptor (unknown origin) at <1 uM
T1 sequence (whole entry): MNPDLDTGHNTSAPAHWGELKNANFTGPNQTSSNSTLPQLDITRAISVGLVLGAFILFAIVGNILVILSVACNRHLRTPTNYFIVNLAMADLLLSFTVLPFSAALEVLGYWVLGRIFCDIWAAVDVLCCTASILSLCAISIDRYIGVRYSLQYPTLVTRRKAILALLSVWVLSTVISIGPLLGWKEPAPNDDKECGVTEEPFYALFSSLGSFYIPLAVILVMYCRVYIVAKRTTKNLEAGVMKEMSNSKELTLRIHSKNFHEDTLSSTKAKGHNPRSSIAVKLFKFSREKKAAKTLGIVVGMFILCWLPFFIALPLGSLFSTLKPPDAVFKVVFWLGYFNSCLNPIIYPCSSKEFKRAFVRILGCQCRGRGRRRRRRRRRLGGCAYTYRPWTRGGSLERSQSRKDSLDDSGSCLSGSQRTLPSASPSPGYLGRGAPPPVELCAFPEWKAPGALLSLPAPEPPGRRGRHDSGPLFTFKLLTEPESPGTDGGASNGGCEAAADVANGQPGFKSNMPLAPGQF

[3] = molecular target: PAK2 (serine/threonine-protein kinase PAK 2) (Homo sapiens, UniProt Q13177); test: Inhibition of N-terminal 6His-tagged recombinant human PAK2 (3-end residues) expressed in expressed in Escherichia coli at 100 nM
PAK2 (serine/threonine-protein kinase PAK 2), sequence (Q13177 whole entry, the tested form may be a part): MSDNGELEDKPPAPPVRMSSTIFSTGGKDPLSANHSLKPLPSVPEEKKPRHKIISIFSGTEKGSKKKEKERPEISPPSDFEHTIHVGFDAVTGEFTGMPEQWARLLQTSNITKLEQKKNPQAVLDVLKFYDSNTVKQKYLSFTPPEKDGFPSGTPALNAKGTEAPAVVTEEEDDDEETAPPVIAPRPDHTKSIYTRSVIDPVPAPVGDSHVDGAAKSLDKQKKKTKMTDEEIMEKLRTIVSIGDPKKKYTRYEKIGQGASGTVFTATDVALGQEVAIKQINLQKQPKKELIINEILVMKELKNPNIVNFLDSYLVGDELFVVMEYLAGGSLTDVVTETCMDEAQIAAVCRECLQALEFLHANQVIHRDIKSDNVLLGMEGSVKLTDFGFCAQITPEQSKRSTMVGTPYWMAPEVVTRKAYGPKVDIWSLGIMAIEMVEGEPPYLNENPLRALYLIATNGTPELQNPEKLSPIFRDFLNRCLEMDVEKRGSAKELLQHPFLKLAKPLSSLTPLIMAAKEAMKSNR

[4] = molecular target: T2, Proto-oncogene tyrosine-protein kinase Src (Homo sapiens, UniProt P12931); test: Inhibition of N-terminal His6-tagged recombinant human Src (1 to 530 residues) expressed in baculovirus infected sf21 cells
T2 sequence (P12931 2-536 limits assumed): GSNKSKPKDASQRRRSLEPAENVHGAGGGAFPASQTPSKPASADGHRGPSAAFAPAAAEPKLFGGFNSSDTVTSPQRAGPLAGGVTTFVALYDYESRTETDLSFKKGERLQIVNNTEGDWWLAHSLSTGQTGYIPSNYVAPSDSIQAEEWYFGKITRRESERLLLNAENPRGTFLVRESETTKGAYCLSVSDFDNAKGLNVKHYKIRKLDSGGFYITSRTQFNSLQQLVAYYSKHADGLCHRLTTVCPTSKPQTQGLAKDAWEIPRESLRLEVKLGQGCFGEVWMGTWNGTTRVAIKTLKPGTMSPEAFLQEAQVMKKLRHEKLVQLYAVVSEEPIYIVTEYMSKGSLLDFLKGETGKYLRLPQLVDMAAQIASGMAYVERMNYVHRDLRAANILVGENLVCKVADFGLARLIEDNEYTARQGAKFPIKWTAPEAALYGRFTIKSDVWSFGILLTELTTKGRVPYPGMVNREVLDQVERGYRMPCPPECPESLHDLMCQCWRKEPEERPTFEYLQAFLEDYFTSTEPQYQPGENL

[5] = molecular target: T3, Tyrosine-protein kinase Lck (Homo sapiens, UniProt P06239); test: Inhibition of N-terminal 6His-tagged full length recombinant human LCK expressed in baculovirus expression system
Target sequence in this assay (P06239 whole entry): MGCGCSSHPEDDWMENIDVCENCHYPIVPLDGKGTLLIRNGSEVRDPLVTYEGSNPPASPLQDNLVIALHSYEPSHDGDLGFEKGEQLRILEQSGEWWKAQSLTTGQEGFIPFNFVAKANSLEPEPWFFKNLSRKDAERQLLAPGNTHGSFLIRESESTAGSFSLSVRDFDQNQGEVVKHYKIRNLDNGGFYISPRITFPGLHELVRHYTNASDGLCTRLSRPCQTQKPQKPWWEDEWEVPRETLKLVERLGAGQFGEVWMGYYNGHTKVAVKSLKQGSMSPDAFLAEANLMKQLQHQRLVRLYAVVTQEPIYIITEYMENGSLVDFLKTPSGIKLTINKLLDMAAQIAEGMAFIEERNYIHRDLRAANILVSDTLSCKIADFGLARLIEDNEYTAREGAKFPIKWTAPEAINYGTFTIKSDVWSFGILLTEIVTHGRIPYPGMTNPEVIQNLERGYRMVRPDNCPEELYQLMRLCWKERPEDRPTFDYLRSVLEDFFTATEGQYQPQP

[6] = molecular target: T4, Tyrosine-protein kinase Yes (Homo sapiens, UniProt P07947); test: Inhibition of N-terminal 6His-tagged full length recombinant human YES expressed in baculovirus expression system
Target sequence in this assay (P07947 whole entry): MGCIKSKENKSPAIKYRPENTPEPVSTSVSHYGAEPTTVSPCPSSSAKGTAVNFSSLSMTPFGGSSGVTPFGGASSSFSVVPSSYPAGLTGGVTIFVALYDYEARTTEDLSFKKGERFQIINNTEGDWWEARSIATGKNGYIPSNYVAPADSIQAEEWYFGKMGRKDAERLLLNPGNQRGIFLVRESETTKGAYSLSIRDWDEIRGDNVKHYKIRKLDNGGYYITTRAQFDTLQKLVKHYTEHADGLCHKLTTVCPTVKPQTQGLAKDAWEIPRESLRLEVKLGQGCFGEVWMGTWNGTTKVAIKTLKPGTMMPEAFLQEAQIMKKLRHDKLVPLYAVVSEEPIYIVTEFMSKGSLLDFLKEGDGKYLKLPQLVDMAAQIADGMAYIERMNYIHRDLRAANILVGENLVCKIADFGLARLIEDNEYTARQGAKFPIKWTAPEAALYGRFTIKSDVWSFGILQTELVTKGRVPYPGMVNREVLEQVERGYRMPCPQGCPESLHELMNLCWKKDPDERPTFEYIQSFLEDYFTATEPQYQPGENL

[7] = molecular target: T4, Tyrosine-protein kinase Yes; conditions: 100 nM
Target sequence in this assay (P07947 2-543 limits assumed): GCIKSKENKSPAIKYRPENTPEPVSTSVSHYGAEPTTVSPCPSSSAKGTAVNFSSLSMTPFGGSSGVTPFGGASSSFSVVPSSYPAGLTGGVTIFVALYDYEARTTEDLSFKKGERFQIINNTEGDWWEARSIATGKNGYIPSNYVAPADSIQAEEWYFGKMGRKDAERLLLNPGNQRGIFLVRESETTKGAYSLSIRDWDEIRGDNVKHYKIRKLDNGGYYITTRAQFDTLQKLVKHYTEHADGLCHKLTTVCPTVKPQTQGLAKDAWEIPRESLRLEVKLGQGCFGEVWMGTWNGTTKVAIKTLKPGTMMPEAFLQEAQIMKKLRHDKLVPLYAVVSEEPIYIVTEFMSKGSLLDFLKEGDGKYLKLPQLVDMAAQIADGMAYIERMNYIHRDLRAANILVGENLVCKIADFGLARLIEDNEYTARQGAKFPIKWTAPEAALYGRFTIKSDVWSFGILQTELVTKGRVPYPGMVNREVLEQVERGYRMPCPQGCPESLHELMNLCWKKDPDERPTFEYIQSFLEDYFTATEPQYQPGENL
Description: Inhibition of N-terminal 6His-tagged full length recombinant human YES expressed in baculovirus expression system at 100 nM

[8] = organism: Homo sapiens; test: Activity at CaV-L (unknown origin) at <1 uM
[9] = molecular target: T5, Protein kinase C theta type (Homo sapiens, UniProt Q04759); test: Inhibition of human PKCtheta at 100 nM
[10] = molecular target: T3, Tyrosine-protein kinase Lck; conditions: Sf21, 100 nM
Target sequence in this assay (P06239 2-509 limits assumed): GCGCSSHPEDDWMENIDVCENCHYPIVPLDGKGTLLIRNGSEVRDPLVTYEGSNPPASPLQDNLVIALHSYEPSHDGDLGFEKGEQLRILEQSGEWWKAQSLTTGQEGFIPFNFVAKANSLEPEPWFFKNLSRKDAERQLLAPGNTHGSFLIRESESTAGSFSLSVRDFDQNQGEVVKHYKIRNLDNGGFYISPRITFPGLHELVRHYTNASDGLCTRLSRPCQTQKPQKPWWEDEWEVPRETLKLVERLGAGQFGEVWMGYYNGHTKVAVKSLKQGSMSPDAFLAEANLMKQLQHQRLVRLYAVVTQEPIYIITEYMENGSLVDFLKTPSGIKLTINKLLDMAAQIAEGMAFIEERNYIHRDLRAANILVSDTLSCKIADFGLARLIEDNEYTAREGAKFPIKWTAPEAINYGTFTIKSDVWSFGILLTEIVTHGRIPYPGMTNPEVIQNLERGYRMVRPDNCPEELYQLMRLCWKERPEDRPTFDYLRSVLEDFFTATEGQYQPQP
Description: Inhibition of N-terminal 6His-tagged full length recombinant human LCK expressed in baculovirus infected Sf21 cells at 100 nM

[11] = molecular target: 5-hydroxytryptamine receptor 2B (Homo sapiens) (UniProt P41595); test: Activity at 5HT2B receptor (unknown origin) at <1 uM
[12] = molecular target: T6, Alpha-2C adrenergic receptor (Homo sapiens) (UniProt P18825); test: Activity at alpha-2C adrenergic receptor (unknown origin) at <1 uM
T6 sequence (whole entry): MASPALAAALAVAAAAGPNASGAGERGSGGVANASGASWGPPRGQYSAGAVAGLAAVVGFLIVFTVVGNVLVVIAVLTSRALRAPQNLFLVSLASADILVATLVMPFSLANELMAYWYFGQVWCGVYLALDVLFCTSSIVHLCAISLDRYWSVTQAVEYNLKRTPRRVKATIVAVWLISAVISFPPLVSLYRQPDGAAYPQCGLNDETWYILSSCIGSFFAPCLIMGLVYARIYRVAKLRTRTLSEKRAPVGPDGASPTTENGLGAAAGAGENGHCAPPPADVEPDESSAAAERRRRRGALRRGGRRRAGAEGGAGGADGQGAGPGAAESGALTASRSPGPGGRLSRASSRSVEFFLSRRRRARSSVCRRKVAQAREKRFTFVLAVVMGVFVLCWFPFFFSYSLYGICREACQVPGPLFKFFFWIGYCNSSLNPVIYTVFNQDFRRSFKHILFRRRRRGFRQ

[13] = molecular target: T7, Muscarinic acetylcholine receptor M1 (Homo sapiens) (UniProt P11229); test: Activity at muscarinic acetylcholine receptor M1 (unknown origin) at <1 uM
T7 sequence (whole entry): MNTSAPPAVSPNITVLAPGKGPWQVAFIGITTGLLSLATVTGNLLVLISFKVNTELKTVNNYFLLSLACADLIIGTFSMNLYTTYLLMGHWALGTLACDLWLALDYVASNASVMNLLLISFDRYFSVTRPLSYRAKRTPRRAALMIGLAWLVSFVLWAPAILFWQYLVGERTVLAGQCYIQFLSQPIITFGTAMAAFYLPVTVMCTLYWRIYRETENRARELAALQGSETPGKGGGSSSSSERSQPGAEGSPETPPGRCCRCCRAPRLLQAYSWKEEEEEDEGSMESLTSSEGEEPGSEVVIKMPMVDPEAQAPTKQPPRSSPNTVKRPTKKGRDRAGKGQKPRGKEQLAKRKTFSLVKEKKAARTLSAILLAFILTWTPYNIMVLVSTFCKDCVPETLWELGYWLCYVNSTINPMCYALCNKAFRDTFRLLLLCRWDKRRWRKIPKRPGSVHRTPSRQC

[14] = molecular target: T8, Serine/threonine-protein kinase PAK 2 (Homo sapiens, UniProt Q13177)
T8 sequence (Q13177 whole entry): as the sequence (Q13177 whole entry, the tested form may be a part) above
Description: Binding affinity to human PAK2 (P151 to R525 residues) expressed in bacterial expression system by KINOMEscan assay

[15] = molecular target: T8, Serine/threonine-protein kinase PAK 2; remark: listed apart in the source
Description: Inhibition of N-terminal 6His-tagged recombinant human PAK2 (3-end residues) expressed in Escherichia coli

[16] = molecular target: T9, Muscarinic acetylcholine receptor M5 (Homo sapiens) (UniProt P08912); test: Activity at muscarinic acetylcholine receptor M5 (unknown origin) at <1 uM
T9 sequence (whole entry): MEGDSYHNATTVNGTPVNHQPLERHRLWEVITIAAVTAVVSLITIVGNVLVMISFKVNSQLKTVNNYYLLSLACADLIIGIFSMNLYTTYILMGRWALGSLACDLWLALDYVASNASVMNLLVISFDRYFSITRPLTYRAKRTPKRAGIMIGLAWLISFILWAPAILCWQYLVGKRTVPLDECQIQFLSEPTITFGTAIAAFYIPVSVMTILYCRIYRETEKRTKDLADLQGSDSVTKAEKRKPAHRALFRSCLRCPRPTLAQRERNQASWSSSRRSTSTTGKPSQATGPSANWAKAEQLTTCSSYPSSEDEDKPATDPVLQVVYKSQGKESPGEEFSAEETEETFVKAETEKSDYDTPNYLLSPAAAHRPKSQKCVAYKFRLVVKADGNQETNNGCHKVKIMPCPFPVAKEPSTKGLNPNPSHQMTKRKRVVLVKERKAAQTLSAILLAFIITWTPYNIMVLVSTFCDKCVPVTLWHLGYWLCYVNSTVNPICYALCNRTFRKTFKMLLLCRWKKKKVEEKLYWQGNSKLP

[17] = molecular target: T10, Tyrosine-protein kinase Fyn (Homo sapiens, UniProt P06241); test: Inhibition of N-Terminal His6-tagged full length recombinant human FYN expressed in baculovirus expression system
Target sequence in this assay (P06241 whole entry): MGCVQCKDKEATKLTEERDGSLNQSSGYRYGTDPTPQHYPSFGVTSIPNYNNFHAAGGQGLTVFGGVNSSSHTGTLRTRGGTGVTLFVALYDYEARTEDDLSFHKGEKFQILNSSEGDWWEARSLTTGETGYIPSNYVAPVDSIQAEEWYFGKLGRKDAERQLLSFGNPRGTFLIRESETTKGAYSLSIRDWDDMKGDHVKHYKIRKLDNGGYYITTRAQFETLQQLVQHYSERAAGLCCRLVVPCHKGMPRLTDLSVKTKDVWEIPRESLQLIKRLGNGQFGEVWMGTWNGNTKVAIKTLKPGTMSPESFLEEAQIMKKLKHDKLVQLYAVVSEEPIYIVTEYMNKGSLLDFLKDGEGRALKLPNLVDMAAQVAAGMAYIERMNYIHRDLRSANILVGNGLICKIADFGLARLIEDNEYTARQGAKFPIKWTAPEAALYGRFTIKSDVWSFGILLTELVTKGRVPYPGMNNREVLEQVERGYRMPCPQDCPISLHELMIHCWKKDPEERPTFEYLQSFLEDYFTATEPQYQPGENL

[18] = molecular target: D(3) dopamine receptor (Homo sapiens) (UniProt P35462); test: Activity at dopamine receptor D3 (unknown origin) at <1 uM
D(3) dopamine receptor (Homo sapiens), sequence (P35462 whole entry): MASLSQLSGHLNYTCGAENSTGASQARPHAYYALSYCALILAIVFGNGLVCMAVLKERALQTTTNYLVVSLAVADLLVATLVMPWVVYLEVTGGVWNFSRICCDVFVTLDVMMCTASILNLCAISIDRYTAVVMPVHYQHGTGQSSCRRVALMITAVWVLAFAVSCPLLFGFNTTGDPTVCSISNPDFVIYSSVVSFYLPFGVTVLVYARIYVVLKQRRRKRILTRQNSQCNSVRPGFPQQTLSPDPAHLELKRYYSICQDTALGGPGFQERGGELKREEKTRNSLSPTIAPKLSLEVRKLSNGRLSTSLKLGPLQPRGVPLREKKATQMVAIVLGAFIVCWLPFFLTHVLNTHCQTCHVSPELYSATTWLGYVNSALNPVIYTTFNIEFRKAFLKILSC

[19] = molecular target: T11, Muscarinic acetylcholine receptor M2 (Homo sapiens) (UniProt P08172); test: Activity at muscarinic acetylcholine receptor M2 (unknown origin) at <1 uM
T11 sequence (whole entry): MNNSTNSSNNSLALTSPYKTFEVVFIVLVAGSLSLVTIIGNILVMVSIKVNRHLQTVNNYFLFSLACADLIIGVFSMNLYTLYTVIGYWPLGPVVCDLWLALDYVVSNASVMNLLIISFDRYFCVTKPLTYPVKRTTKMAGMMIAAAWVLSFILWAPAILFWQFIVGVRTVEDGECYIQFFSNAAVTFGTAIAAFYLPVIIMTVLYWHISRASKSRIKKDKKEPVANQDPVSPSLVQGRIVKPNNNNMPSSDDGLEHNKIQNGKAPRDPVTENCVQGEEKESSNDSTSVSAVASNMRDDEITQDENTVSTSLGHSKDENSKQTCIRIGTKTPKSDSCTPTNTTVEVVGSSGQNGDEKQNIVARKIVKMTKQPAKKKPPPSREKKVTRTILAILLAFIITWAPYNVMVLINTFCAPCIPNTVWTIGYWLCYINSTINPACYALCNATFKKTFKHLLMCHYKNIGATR

[20] = molecular target: T2, Proto-oncogene tyrosine-protein kinase Src; test: Inhibition of N-terminal His6-tagged recombinant human Src (1 to 530 residues) expressed in baculovirus infected sf21 cells at 100 nM
[21] = Intrinsic clearance in rat hepatocytes assessed per million cells; format: ADME, cell-based, Hepatocyte; conditions: read-out: CLH
[22] = molecular target: T12, 5-hydroxytryptamine receptor 2C (Homo sapiens) (UniProt P28335); test: Activity at 5HT2C receptor (unknown origin) at <1 uM
T12 sequence (whole entry): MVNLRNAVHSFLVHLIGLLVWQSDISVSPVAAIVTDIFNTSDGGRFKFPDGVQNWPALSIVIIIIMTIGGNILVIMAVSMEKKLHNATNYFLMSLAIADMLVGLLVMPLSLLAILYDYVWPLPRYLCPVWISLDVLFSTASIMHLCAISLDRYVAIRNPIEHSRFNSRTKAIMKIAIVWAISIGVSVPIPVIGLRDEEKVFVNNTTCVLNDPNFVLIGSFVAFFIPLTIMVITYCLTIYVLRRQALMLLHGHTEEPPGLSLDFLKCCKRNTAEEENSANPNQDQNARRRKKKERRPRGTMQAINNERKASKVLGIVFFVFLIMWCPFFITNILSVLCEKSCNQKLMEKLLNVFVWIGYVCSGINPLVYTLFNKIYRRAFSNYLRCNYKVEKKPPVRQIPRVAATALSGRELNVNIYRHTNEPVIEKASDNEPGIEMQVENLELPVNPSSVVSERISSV

[23] = molecular target: T10, Tyrosine-protein kinase Fyn; test: Inhibition of N-Terminal His6-tagged full length recombinant human FYN expressed in baculovirus expression system at 100 nM
Target sequence in this assay (P06241 2-537 limits assumed): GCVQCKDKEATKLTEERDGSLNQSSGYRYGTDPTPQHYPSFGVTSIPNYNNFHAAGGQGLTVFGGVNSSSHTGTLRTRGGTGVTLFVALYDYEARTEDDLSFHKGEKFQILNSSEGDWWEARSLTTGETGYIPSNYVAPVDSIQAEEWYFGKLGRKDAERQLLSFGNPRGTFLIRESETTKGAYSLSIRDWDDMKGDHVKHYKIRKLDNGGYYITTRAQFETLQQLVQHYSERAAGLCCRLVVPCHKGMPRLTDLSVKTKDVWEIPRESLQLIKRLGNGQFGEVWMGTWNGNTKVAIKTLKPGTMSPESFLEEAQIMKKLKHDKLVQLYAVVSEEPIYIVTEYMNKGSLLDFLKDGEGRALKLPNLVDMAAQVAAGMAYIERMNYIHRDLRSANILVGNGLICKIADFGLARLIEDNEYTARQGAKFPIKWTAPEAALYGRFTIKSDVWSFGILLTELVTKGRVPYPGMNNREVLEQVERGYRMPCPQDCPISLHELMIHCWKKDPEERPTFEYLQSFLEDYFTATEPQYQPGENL

[24] = molecular target: T13, Tyrosine-protein kinase Lyn (Homo sapiens, UniProt P07948); test: Inhibition of N-terminal his6-tagged recombinant full-length human LYN expressed in baculovirus infected Sf21 cells at 100 nM
[25] = molecular target: T13, Tyrosine-protein kinase Lyn; test: Inhibition of N-terminal his6-tagged recombinant full-length human LYN expressed in baculovirus infected Sf21 cells
[26] = molecular target: Sodium-dependent dopamine transporter (Homo sapiens) (UniProt Q01959); test: Activity at dopamine transporter (unknown origin) at <1 uM
[27] = molecular target: T5, Protein kinase C theta type; test: Inhibition of C-terminal 6His-tagged recombinant full length human PKCtheta expressed in fall armyworm Sf21 cells

logD [1]: 3.3
Compound: Cc1ccc(CO)cc1N(C)c1nc(Nc2cc(N3CCOCC3)cc(S(C)(=O)=O)c2)ncc1F

logD [1]: 3
Compound: CCS(=O)(=O)c1cc(Nc2ncc(F)c(N(C)c3cc(CO)ccc3C)n2)ccc1N1CCN(C)CC1

logD [1]: 2.6
Compound: Cc1ccc(CO)cc1N(C)c1nc(Nc2ccc(N3CCN(C)CC3)c(S(C)(=O)=O)c2)ncc1F

logD [1]: 3.5
Compound: CCN(c1cc(CO)ccc1C)c1nc(Nc2ccc(N3CCN(C)CC3)c(S(=O)(=O)CC)c2)ncc1F

The next lines start with the molecule.

Compound: Cc1ccc(N(C)c2nc(Nc3cc(N4CCOCC4)cc(S(C)(=O)=O)c3)ncc2F)cc1CO
logD [1]: 3.3

Compound: CCS(=O)(=O)c1cc(Nc2ncc(F)c(N(Cc3ccccc3C#N)c3cc(CO)ccc3C)n2)ccc1N1CCN(C)CC1
Activity [2]: Active
inhibition at 0.1 µM [3]: 98%
IC50 [4]: 93 nM
logD [1]: 3.7
IC50 [5]: 36 nM
IC50 [6]: 4 nM
inhibition [7]: 95%
Activity [8]: Active
inhibition [9]: 91%
inhibition [10]: 83%
Activity [11]: Active
Activity [12]: Active
Activity [13]: Active
Kd [14]: 0.32 nM
IC50 [15]: 6 nM
Activity [16]: Active
IC50 [17]: 45 nM
Activity [18]: Active
Activity [19]: Active
inhibition [20]: 86%
hepatocyte CLint [21]: 30 µL/min/1e6 cells
Activity [22]: Active
inhibition [23]: 87%
inhibition [24]: 91%
IC50 [25]: 31 nM
Activity [26]: Active
IC50 [27]: 7 nM

Compound: CCn1c(=O)c(-c2ccc(-c3cncs3)cc2Cl)cc2cnc(Nc3ccc(N4CCN(C)CC4)cc3)nc21
logD [1]: > 4

Compound: Cc1cc(C)c(N(C)c2nc(Nc3cc(N4CCOCC4)cc(S(C)(=O)=O)c3)ncc2F)cc1CO
logD [1]: 3.8

Compound: CN(c1cccc(CO)c1)c1nc(Nc2cc(N3CCOCC3)cc(S(C)(=O)=O)c2)ncc1F
logD [1]: 3
